According to patent publication US11939379B2 (The Regents of the University of California, priority 2017, dated 2024):
Residue numbers refer to the chain shown, from its start. “Also recorded” adds a separate entry of the source.

Legend:
BCL-xL/ABT-263 complex = biological target: T1, BCL-xL/ABT-263 complex (Homo sapiens, UniProt Q07817); test: Biolayer interferometry, Fab binding to BCL-xL in the presence of ABT-263; conditions: ABT-263 in place of ABT-737
T1 construct: C-terminally truncated BCL-xL (residues 2-215) with an N-terminal AviTag; made in house; host or cells: E. coli BL21(DE3), pMCSG7 vector
Protocol: Biolayer interferometery data were measured using an Octet RED384 instrument (ForteBio). Biotinylated BCL-xL was immobilized on a Streptavidin (SA) biosensor using a 200 nM solution. Serial dilutions of Fabs in kinetics buffer (PBS, pH 7.4, 0.05% Tween-20, 0.2% BSA, 10 μM biotin) with small molecule (1 μM), peptide (5 μM), or vehicle (0.05% DMSO) were used as analyte. Affinity (KD) and kinetic parameters (kon and koff) were calculated from a global fit (1:1) of the data using the Octet RED384 software.

mice = conditions: mouse, in vivo; cited from earlier work
HEK293T cells = test: Cellular toxicity of ABT-737, CellTiter-Glo; type: cell-based; conditions: 24 h, viability relative to DMSO, read-out: IC50 (cell death)
Protocol: (§1) W T Jurkat, AbCID CAR Jurkat, Conventional CAR Jurkat, WT K562, CD19^+ K562, and HEK293T cells were plated in 96-well plates at ˜5000 cells per well. Each cell line was incubated with varying concentrations of ABT-737 (10 μM initial, 3-fold serial-dilutions, 8 times) or DMSO alone (0.1%). After 24 h, cell viability was measured using a CellTiter-Glo® Luminescent Cell Viability Assay (Promega) and the manufacturer's standard protocol. The percent viability relative to DMSO treatment was plotted and analyzed for each cell line using Prism software (GraphPad).

Jurkat cells = test: Cellular toxicity of ABT-737, CellTiter-Glo; type: cell-based; conditions: 24 h, viability relative to DMSO, read-out: IC50 (cell death)
Protocol: as §1

K562 cells = test: Cellular toxicity of ABT-737, CellTiter-Glo; type: cell-based; conditions: K562, 24 h, viability relative to DMSO; read-out: IC50 (cell death)
Protocol: as §1

[1] = system: AbCID CAR (BCL-xL) Jurkat NFAT reporter cells co-cultured with K562 target cells; test: Quantification of CAR T-cell activation (NFAT-GFP, CD69, IL-2); type: cell-based; conditions: for NFAT-dependent GFP reporter expression / IL-2 secretion / CD69 expression: antibody 5 nM, 20 hours
Protocol: Jurkat cells expressing CARs were mixed with antigen positive (CD19^+) or antigen negative (CD19^−) K562 target cells at a ratio of 1:2. […] After overnight incubation at 37° C., cells were pelleted by centrifugation. NFAT-dependent GFP reporter expression was quantified by flow cytometry using a FACSCanto II (BD Biosciences). CD69 expression was quantified by immunofluorescence flow cytometry using a FACSCanto II (BD Biosciences) using an APC anti-human CD69 Antibody (Biolegend 310910). IL-2 secretion was quantified by collection of supernatants and analysis by ELISA using the BD Human IL-2 ELISA set as per manufacturer's protocol. All flow cytometry data analysis was performed using FlowJo software and all plots were generated using Prism software (GraphPad).

platelets = conditions: Zhang et al. 2007; cited from earlier work
[2] = system: scAZ1-VPR and dCas9-BCL-xL in reporter HEK293T cell line containing the Gal4-UAS-Fluc operon; test: CRISPRa-mediated luciferase assay (scAZ1 AbCID gene circuit); type: cell-based
Protocol: For CRISPRa-mediated transcriptional activation, the reporter HEK293T cell line containing the Gal4-UAS-Fluc operon (Collaboration, O. R, Nat. Methods, 13:191-192 (2016)) was seeded at ˜0.5×10^6 cells/well in 6-well plates and cultured under 5% CO2 at 37° C. overnight. The cells were transfected with a plasmid encoding scAZ1-VPR and another plasmid encoding dCas9-BCL-xL and Gal4 sgRNA at a 1:1 ratio. The transfected cells were trypsinized and resuspended in fresh DMEM supplemented with 10% FBS 24 h after transfection. Cells were then aliquoted into a 96-well poly-D-lysine coated plate (Corning) and allowed to adhere for 24 h before 20 nM ABT-737 was added to induce CRISPRa activity. Cells were then further incubated for 48 h before evaluation of luciferase gene expression. To determine luciferase activity, cells were lysed with Bright-Glo Luciferase Assay substrate (Promega) and analyzed using an Infinite M200 PRO plate reader (Tecan). The luciferase activities were background-subtracted with a negative control (cells expressing full-length dCas9-VPR and PHOX2B negative-sgRNA), and normalized against a positive control (cells expressing full-length dCas9-VPR and Gal4 sgRNA). For investigation of cellular dose response, different concentrations of ABT-737 (0.014 nM, 0.041 nM, 0.12 nM, 0.37 nM, 1.1 nM, 3.3 nM, 10 nM, 30 nM, 90 nM, 270 nM) were added to the cells after cells were transfected and aliquoted to a 96-well plate.

[3] = system: T cells co-cultured with CD19+ K562 cells; test: AbCID-regulated inducible bispecific T cell engager, T cell activation; type: cell-based; conditions: for T-cell activation, CD69 expression / T-cell activation, NFAT signaling (GFP expression): antibody conjugated to anti-CD19, Bcl-2 conjugated to anti-CD3, addition of ABT-199
Description: A representative embodiment of an AbCID-regulated inducible bispecific T cell engager is shown in FIG. 19A, having a first AbCID component conjugated to an anti-CD3 antibody and a second AbCID component conjugated to an antibody that recognizes a tumor specific antigen. Administration of the small molecule dimerizer allows for generation of the CID complex, resulting in recruitment of T cells to cancer cells expressing the tumor specific antigen.

T1 sequence (Q07817 2-215, one chain of several): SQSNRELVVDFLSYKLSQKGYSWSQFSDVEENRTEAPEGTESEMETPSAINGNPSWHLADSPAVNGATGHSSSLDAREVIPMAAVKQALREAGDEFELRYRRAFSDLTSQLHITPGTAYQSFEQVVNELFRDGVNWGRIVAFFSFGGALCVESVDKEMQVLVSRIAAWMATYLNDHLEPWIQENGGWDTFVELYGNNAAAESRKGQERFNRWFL

With `CC1(C)CCC(c2ccc(Cl)cc2)=C(CN2CCN(c3ccc(C(=O)NS(=O)(=O)c4ccc(N[C@H](CCN5CCOCC5)CSc5ccccc5)c(S(=O)(=O)C(F)(F)F)c4)cc3)CC2)C1` [ABT-263] the “formation of a dimer” value (BCL-xL/ABT-263 complex) was “does not result in the formation of a dimer”.

In the case of `CN(C)CC[C@H](CSc1ccccc1)Nc1ccc(S(=O)(=O)NC(=O)c2ccc(N3CCN(Cc4ccccc4-c4ccc(Cl)cc4)CC3)cc2)cc1[N+](=O)[O-]` [ABT-737], the tolerability in mice (mice) is given as “generally well tolerated by mice, except for platelet toxicity”, the IC50 (HEK293T cells) is given as ~10000 nM and the IC50 (Jurkat cells) is given as ~2000 nM. The IC50 (K562 cells) was > 10000 nM, the “concentration range used to induce AbCID CAR activity” value [1] was < 100 nM and the “T-cell activation by ABT-737 on its own” value ([1]; ABT-737 alone) was “not able to induce T-cell activation on its own”. The “NFAT-dependent GFP reporter expression” value ([1]; CD19+ K562 target cells) was “dose-dependent activation of the NFAT pathway”, the IL-2 secretion ([1]; CD19+ K562 target cells, ELISA) was “dose-dependent secretion of IL-2” and the CD69 expression ([1]; CD19+ K562 target cells, immunofluorescence flow cytometry) was “dose-dependent expression of CD69”. For the same molecule, the CD69 expression ([1]; CD19− K562 target cells) was “no expression was observed”, the IL-2 secretion ([1]; CD19− K562 target cells) was “no secretion was observed” and the “NFAT-dependent GFP reporter expression” value ([1]; CD19− K562 target cells) was “not observed; also recorded: no activation was observed”. The “concentration observed to be toxic to platelets” value (platelets) was “low μM”, the “concentration range used to induce CRISPRa activity” value [2] was < 270 nM and the EC50 ([2]; 48-hour induction, AbCID-gated system, read-out: EC50 of induction of luciferase expression) was 8.9 ± 1 nM. The luciferase expression ([2]; ABT-737 20 nM, 48 hours, Gal4 sgRNA) was “robust expression of luciferase” and the “luciferase expression with a negative sgRNA” value ([2]; AbCID-gated system with a negative sgRNA) was “no increase in luciferase expression”.

B1: AZ34: Fab clone selected against Bcl-2 + ABT-199 complex (antibody)
heavy: EISEVQLVESGGGLVQPGGSLRLSCAASGFNIYYSSMHWVRQAPGKGLEWVASISSYSGSTSYADSVKGRFTISADTSKNTAYLQMNSLRAEDTAVYYCARGGWFWGSGGYSSAFDYWGQGTLVTVSSASTKGPSVFPLAPSSKSTSGGTAALGCLVKDYFPEPVTVSWNSGALTSGVHTFPAVLQSSGLYSLSSVVTVPSSSLGTQTYICNVNHKPSNTKVDKKVEPKSCDKTHTGGSHHHHHH
light: SDIQMTQSPSSLSASVGDRVTITCRASQSVSSAVAWYQQKPGKAPKLLIYSASSLYSGVPSRFSGSRSGTDFTLTISSLQPEDFATYYCQQHHSLITFGQGTKVEIKRTVAAPSVFIFPPSDSQLKSGTASVVCLLNNFYPREAKVQWKVDNALQSGNSQESVTEQDSKDSTYSLSSTLTLSKADYEKHKVYACEVTHQGLSSPVTKSFNRGECGGSDYKDDDDK
With B1 the “T-cell activation, CD69 expression” value [3] was “increased expression of CD69” and the “T-cell activation, NFAT signaling (GFP expression)” value (from here on “T-cell activation, NFAT signaling”) [3] was “activation of NFAT signaling”.

B2: AZ21: Fab clone selected against Bcl-2 + ABT-199 complex (antibody)
heavy: EISEVQLVESGGGLVQPGGSLRLSCAASGFNLSYSSMHWVRQAPGKGLEWVASISPYSSYTYYADSVKGRFTISADTSKNTAYLQMNSLRAEDTAVYYCARGYWSFYGMDYWGQGTLVTVSSASTKGPSVFPLAPSSKSTSGGTAALGCLVKDYFPEPVTVSWNSGALTSGVHTFPAVLQSSGLYSLSSVVTVPSSSLGTQTYICNVNHKPSNTKVDKKVEPKSCDKTHTGGSHHHHHH
light: SDIQMTQSPSSLSASVGDRVTITCRASQSVSSAVAWYQQKPGKAPKLLIYSASSLYSGVPSRFSGSRSGTDFTLTISSLQPEDFATYYCQQYYAHYLFTFGQGTKVEIKRTVAAPSVFIFPPSDSQLKSGTASVVCLLNNFYPREAKVQWKVDNALQSGNSQESVTEQDSKDSTYSLSSTLTLSKADYEKHKVYACEVTHQGLSSPVTKSFNRGECGGSDYKDDDDK
For B2, the “T-cell activation, CD69 expression” value [3] was “increased expression of CD69”, the “T-cell activation, NFAT signaling” value [3] was “activation of NFAT signaling” and the “level of T-cell activation (NFAT activation) versus ABT-199 concentration” value ([3]; titration of ABT-199) was “tunable by titration of ABT-199 concentration”.

B3: AZ35: Fab clone selected against Bcl-2 + ABT-199 complex (antibody)
heavy: EISEVQLVESGGGLVQPGGSLRLSCAASGFNLYYSSIHWVRQAPGKGLEWVAYISSYSGYTYYADSVKGRFTISADTSKNTAYLQMNSLRAEDTAVYYCARGGWYWASGSYYGAMDYWGQGTLVTVSSASTKGPSVFPLAPSSKSTSGGTAALGCLVKDYFPEPVTVSWNSGALTSGVHTFPAVLQSSGLYSLSSVVTVPSSSLGTQTYICNVNHKPSNTKVDKKVEPKSCDKTHTGGSHHHHHH
light: B2 light with Y93G, A94Y, H95S, Y96V, F98I
In the case of B3, the “T-cell activation, CD69 expression” value [3] is reported as “increased expression of CD69” and the “T-cell activation, NFAT signaling” value [3] is reported as “activation of NFAT signaling”.
